Experimental data from ChEMBL document CHEMBL1128875, “Synthesis and biological activity of Para-substituted 3-phenyl docetaxel analogs” (Bioorg Med Chem Lett, 1995).
≈ marks a conversion by molar mass, not a printed value.

Tests used:
P388 = assay: In vitro cytotoxicity against murine P388 lymphocytic leukemia cells; format: functional, cell-based; settings: Mus musculus
Mus musculus [1] = organism: Mus musculus; assay: Ratio of median tumor weight of the treated mice /control mice; format: functional
[2] = target: Tubulin alpha chain (Sus scrofa) (UniProt P02550); assay: Tested for 50% inhibition of the rate of microtubule disassembly to that paclitaxel; format: functional
Mus musculus [3] = assay: In vivo antitumor activity against B16 melanoma cells in mice; format: functional
Mus musculus [4] = organism: Mus musculus; assay: Ratio of median tumor weight of the treated mice /control mice; non evaluable: immediate death after injection (insoluble compound); format: ADME, organism-based; settings: in vivo
Mus musculus [5] = organism: Mus musculus; assay: Ratio of median tumor weight of the treated mice /control mice; non evaluable: delayed toxicity; format: organism-based; settings: in vivo

Tubulin alpha chain (Sus scrofa), sequence (P02550 whole entry, looked up): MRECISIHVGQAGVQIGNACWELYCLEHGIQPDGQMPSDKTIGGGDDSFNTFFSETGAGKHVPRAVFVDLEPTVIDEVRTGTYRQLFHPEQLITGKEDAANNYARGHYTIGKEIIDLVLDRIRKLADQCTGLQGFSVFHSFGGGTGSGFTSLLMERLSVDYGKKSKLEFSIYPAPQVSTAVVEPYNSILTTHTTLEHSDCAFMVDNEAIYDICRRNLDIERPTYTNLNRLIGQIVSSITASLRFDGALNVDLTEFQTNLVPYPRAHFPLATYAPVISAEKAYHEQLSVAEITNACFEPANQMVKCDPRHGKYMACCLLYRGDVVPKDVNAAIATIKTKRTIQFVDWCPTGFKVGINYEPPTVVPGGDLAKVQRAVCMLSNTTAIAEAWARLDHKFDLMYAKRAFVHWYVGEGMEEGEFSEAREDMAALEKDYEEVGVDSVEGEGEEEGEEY

| SMILES | IC50 (P388) | T/C (Mus musculus [1]) | IC50 ratio [2] | Max tolerated dose (Mus musculus [3]) | T/C (Mus musculus [4]) | T/C (Mus musculus [5]) |
| --- | --- | --- | --- | --- | --- | --- |
| CC(=O)O[C@@]12CO[C@@H]1C[C@H](O)[C@@]1(C)C(=O)[C@H](O)C3=C(C)[C@@H](OC(=O)[C@H](O)[C@@H](NC(=O)OC(C)(C)C)c4ccc(C(=O)c5ccccc5)cc4)C[C@@](O)([C@@H](OC(=O)c4ccccc4)[C@H]21)C3(C)C | > 1 µg/mL | 95% | 20 | 20 mg/kg/day | – | – |
| C=C(C)c1ccc([C@H](NC(=O)OC(C)(C)C)[C@@H](O)C(=O)O[C@H]2C[C@@]3(O)[C@@H](OC(=O)c4ccccc4)[C@@H]4[C@]5(OC(C)=O)CO[C@@H]5C[C@H](O)[C@@]4(C)C(=O)[C@H](O)C(=C2C)C3(C)C)cc1 | 0.35 µg/mL (≈ 0.413 µM) | 105% | 1.8 | 20 mg/kg/day | – | – |
| CC(=O)O[C@@]12CO[C@@H]1C[C@H](O)[C@@]1(C)C(=O)[C@H](O)C3=C(C)[C@@H](OC(=O)[C@H](O)[C@@H](NC(=O)OC(C)(C)C)c4ccc(C=O)cc4)C[C@@](O)([C@@H](OC(=O)c4ccccc4)[C@H]21)C3(C)C | 0.13 µg/mL (≈ 0.156 µM) | – | 0.75 | <13.4 mg/kg/day | non evaluable: immediate death after injection (insoluble compound) | – |
| CC(=O)O[C@@]12CO[C@@H]1C[C@H](O)[C@@]1(C)C(=O)[C@H](O)C3=C(C)[C@@H](OC(=O)[C@H](O)[C@@H](NC(=O)OC(C)(C)C)c4ccc(CO)cc4)C[C@@](O)([C@@H](OC(=O)c4ccccc4)[C@H]21)C3(C)C | 0.06 µg/mL (≈ 0.0716 µM) | – | 0.4 | <4.8 mg/kg/day | – | non evaluable: delayed toxicity |
| CC(=O)O[C@@]12CO[C@@H]1C[C@H](O)[C@@]1(C)C(=O)[C@H](O)C3=C(C)[C@@H](OC(=O)[C@H](O)[C@@H](NC(=O)OC(C)(C)C)c4ccc(C(C)=O)cc4)C[C@@](O)([C@@H](OC(=O)c4ccccc4)[C@H]21)C3(C)C | 0.19 µg/mL (≈ 0.224 µM) | 10% | 0.95 | 35.3 mg/kg/day | – | – |
| C=Cc1ccc([C@H](NC(=O)OC(C)(C)C)[C@@H](O)C(=O)O[C@H]2C[C@@]3(O)[C@@H](OC(=O)c4ccccc4)[C@@H]4[C@]5(OC(C)=O)CO[C@@H]5C[C@H](O)[C@@]4(C)C(=O)[C@H](O)C(=C2C)C3(C)C)cc1 | 0.06 µg/mL (≈ 0.0719 µM) | 19% | 0.7 | 38.3 mg/kg/day | – | – |
| CC(=O)O[C@@]12CO[C@@H]1C[C@H](O)[C@@]1(C)C(=O)[C@H](O)C3=C(C)[C@@H](OC(=O)[C@H](O)[C@@H](NC(=O)OC(C)(C)C)c4ccccc4)C[C@@](O)([C@@H](OC(=O)c4ccccc4)[C@H]21)C3(C)C.O.O.O [DOCETAXEL] | 0.04 µg/mL | 0% | 0.64 | 13.4 mg/kg/day | – | – |
| CC(=O)O[C@@]12CO[C@@H]1C[C@H](O)[C@@]1(C)C(=O)[C@H](O)C3=C(C)[C@@H](OC(=O)[C@H](O)[C@@H](NC(=O)OC(C)(C)C)c4ccc(-c5ccccc5)cc4)C[C@@](O)([C@@H](OC(=O)c4ccccc4)[C@H]21)C3(C)C | 0.65 µg/mL (≈ 0.735 µM) | 40% | 2 | 35 mg/kg/day | – | – |
| C#Cc1ccc([C@H](NC(=O)OC(C)(C)C)[C@@H](O)C(=O)O[C@H]2C[C@@]3(O)[C@@H](OC(=O)c4ccccc4)[C@@H]4[C@]5(OC(C)=O)CO[C@@H]5C[C@H](O)[C@@]4(C)C(=O)[C@H](O)C(=C2C)C3(C)C)cc1 | 0.085 µg/mL (≈ 0.102 µM) | 15% | 0.6 | 21.7 mg/kg/day | – | – |
| CC(=O)O[C@@]12CO[C@@H]1C[C@H](O)[C@@]1(C)C(=O)[C@H](O)C3=C(C)[C@@H](OC(=O)[C@H](O)[C@@H](NC(=O)OC(C)(C)C)c4ccc(C)cc4)C[C@@](O)([C@@H](OC(=O)c4ccccc4)[C@H]21)C3(C)C | 0.04 µg/mL (≈ 0.0487 µM) | 8% | 1.3 | 15.5 mg/kg/day | – | – |
